In publication PMC5841658, “Anti-cancer characteristics and ototoxicity of platinum(II) amine complexes with only one leaving ligand” (PLoS ONE, 2018):
Several values for one entry are separate records, joined by “and”; a condition that tells them apart may be missing. Equal entries are not always repeated.

Tests used:
[1] = tested on: IMR-90 lung fibroblast control cell line; assay: MTT cellular viability assay, IMR90; type: cell-based; conditions: IMR90 (fibroblast, non-cancer), 72 hours, ± standard deviation
Procedure: (§1) Cell lines were obtained from American Type Culture Collection (ATCC, Manassas, VA). […] Caco-2 (ATCC: HTB-37) colorectal cancer was grown in EMEM with 20% FBS and 1% penicillin/streptomycin. All cell lines were incubated at 37°C in 5% CO2 with passaging every 4–7 days. Cell culture media and supplements were obtained from ATCC, Atlanta Biologicals (Flowery Branch, GA), Mediatech (Tewksbury, MA), Fisher Scientific (Waltham, MA), Gibco (Gaithersburg, MD) and Sigma-Aldrich.
(§2) The MTT (3-(4,5-dimethylthiazol-2-yl)-2,5-diphenyltetrazolium bromide) cellular viability assay was performed in all three cancer cell lines and the non-cancer cell line. Following a protocol adapted from, cells were seeded at 5,000 cells per well in 96-well plates and incubated at 37°C in 5% CO2 in F-12K Medium or EMEM with FBS supplementation and 1% penicillin/streptomycin for 24 hours. Then, wells were treated in replicates of six according to a concentration series (500, 50, 5, 0.5, 0.05 μM) of specific platinum complexes for 72 hours. A negative control (media only), positive control (Triton X-100) and series of blanks were simultaneously performed. The MTT assay was run for 2 hours, then well contents were rapidly evacuated out and all wells were treated with MTT solubilization solution [10% Triton X-100 in acidic (0.1N HCl) isopropanol] for 15 minutes before the plates were read using a BioTek Synergy HT microplate plate reader (570 nm and 690 nm absorbance wavelengths). Reagents, cell culture media and supplements were obtained from ATCC, Atlanta Biologicals, Mediatech, Fisher Scientific, Gibco and Sigma-Aldrich.
(§3) GraphPad Prism v6 (La Jolla, CA) was used for all statistical analysis. Nuclear fraction platinum uptake as a total percent of combined nuclear and cytosolic uptake was analyzed using a one-way ANOVA (Brown-Forsyth test; p ≤ 0.05). IC50 values were calculated in Prism using the sigmoidal, 4PL, x is log(concentration) analysis feature or were calculated from Prism derived values using the equation y = mx + b. MTT assay standard deviation values were calculated using ED50plus v1.0 online software. AEP threshold data were analyzed by two-way ANOVA (Dunnett’s multiple comparisons test; p ≤ 0.05) and hair cell quantification data by two-way ANOVA (Tukey’s multiple comparisons test; p ≤ 0.05). AEP temporary threshold shifts (TTS) were calculated by subtracting the mean vehicle threshold for each frequency from each treatment threshold. TTS data were averaged across frequencies for each treatment and were analyzed by one-way ANOVA (Tukey’s multiple comparisons test; p ≤ 0.05).

[2] = tested on: A549 lung cancer cell line; assay: MTT cellular viability assay, A549; type: cell-based; conditions: 72 hours, ± standard deviation
Procedure: as §1, §2, §3

[3] = tested on: zebrafish hearing thresholds; assay: Auditory evoked potential (AEP) testing in zebrafish inner ear model; type: in vivo, Danio rerio; conditions: 25 mg/kg i.p.; for AEP hearing threshold, significance of pairwise comparison against vehicle / AEP hearing threshold, significance of pairwise comparison against cisplatin: 48 h; for mean (± S.E.) temporary threshold shift (TTS), averaged across frequencies: 48 hours, vehicle threshold subtracted
Procedure: (§4) Zebrafish (Danio rerio) were purchased from a commercial supplier (Segrest Farms, Gibsonton, FL) and maintained in the animal facility of Western Kentucky University according to a protocol approved by the Institutional Animal Care and Use Committee. All zebrafish used in this study were a mix of male and female adult animals at least 6 months of age and were maintained according to standard methods.
(§5) After injection, fish were returned to holding tanks for either 24 or 48 hours and then subjected to hearing tests followed by hair cell quantification analysis.
Auditory evoked potential (AEP) testing was performed on individual fish according to standard protocols. […] After harness placement was complete, three 27 gauge stainless steel electrodes (Rochester Electro-Medical, Inc., Lutz, FL) were inserted approximately 2 mm subdermally to record AEPs. A reference electrode was inserted into the medial dorsal surface of the head, a recording electrode directly over the brainstem and a ground electrode in the tail musculature. Sound stimuli (tone pips) were presented to each fish at 8 frequencies (100, 250, 400, 600, 800, 1000, 1500 and 3000 Hz) and AEP waveforms were collected using a TDT System III physiology apparatus (Tucker-Davis Technologies Inc., Alachua, FL) running SigGen and BioSig software. Auditory stimuli were passed through a P1000 power amplifier (Hafler, Port Coquitlam, BC) and presented with a University Sound UW-30 underwater speaker (Electro-Voice, Fairport, NY). Sound pressure levels were confirmed using a Type 10CT hydrophone (G.R.A.S., Holte, Denmark) placed adjacent to the mesh harness. Auditory thresholds were determined in 5 dB increments by visual inspection of AEP waveforms.
as §3

[4] = tested on: zebrafish saccule hair cells; assay: Hair cell quantification, saccule; type: in vivo, Danio rerio; conditions: 25 mg/kg i.p., 48 hours; for effect on hair cell density in four regions of the saccule compared to vehicle: 5, 25, 50, 75% regions
Procedure: as §4, §5
Hair cell counts were performed from specific regions of the zebrafish saccule and utricle using established procedures. […] Prior to dissection, heads were rinsed three times for 10 minutes each at room temperature in phosphate buffer (pH 7.4, LabChem, Pittsburgh, PA) and the inner ear epithelia (saccule and utricle) were then carefully dissected out and trimmed. […] Tissue samples were then placed on glass slides and nuclei were labelled with Prolong Gold antifade reagent (4’,6-diamidino-2-phenylindole [DAPI], Life Technologies, Carlsbad, CA) and a cover-slip was placed over the samples for microscopy.
Saccule and utricle samples were viewed through the FITC filter of a Zeiss Axioplan2 epifluorescence microscope (Carl Zeiss, Jena, Germany) at 20X magnification and were then photographed using an AxioCam MRm camera. Cell counts were made from four regions of the saccule (5%, 25%, 50%, 75%) along the rostral-caudal length of the organ by placing a 50 μm x 50 μm box at each location and using the microscope cell counter feature. In the utricular samples, cell counts were made from three equidistant 50 μm x 50 μm boxes in both the extrastriolar and striolar regions.
as §3

[5] = tested on: U-138 MG (HTB-16) glioblastoma cancer cell line; assay: MTT cellular viability assay, HTB16; type: cell-based; conditions: HTB16 (glioma), 72 hours, ± standard deviation
Procedure: as §1, §2, §3

[6] = tested on: Caco-2 colorectal cancer cell line; assay: MTT cellular viability assay, Caco2; type: cell-based; conditions: 72 hours, ± standard deviation
Procedure: as §1, §2, §3

5'-GMP = assay: Kinetic 5'-GMP assay (1H NMR, rate of reaction of platinum complex with 5'-GMP); type: biochemical; conditions: D2O, pH 7, 25°C; for Rate constant for the reaction of 5'-GMP with the platinum(II) complex: excess platinum, fitted first order in each reactant
Procedure: The reaction of each platinum compound with 5'-GMP (Acros) was monitored using ^1H NMR spectroscopy to observe the disappearance of the H8 signal of the unreacted 5'-GMP at ≈8 ppm and the appearance of a product signal ≈0.5–1.0 ppm downfield of the unreacted 5'-GMP. The reaction was conducted with excess platinum compound present in each case. A 10 mM solution of 5'-GMP and a 10–20 mM solution of the platinum(II) compound were prepared separately in D2O. The pH (uncorrected for the effects of deuterium) of each solution was adjusted to 7, and the samples were equilibrated to 25°C in a water bath. Aliquots of the two solutions were combined and placed in an NMR tube; typically, the final concentrations of platinum was 5–18 mM and the concentration of 5'-GMP was 1 mM (except for the [Pt(dien)Cl]^+ reaction, where it was 0.5 mM). Samples were maintained at 25°C throughout the NMR experiment. The H8 resonances were integrated and the data was fitted to an equation that was first order in each reactant using DynaFit to determine rate constants. At least two runs were conducted for each platinum compound using fresh samples.

Row | SMILES | IC50 [1] [µM] | IC50 [2] [µM] | AEP hearing threshold, significance of pairwise comparison against vehicle ([3]; 100 Hz) | AEP hearing threshold, significance of pairwise comparison against vehicle ([3]; 250 Hz) | AEP hearing threshold, significance of pairwise comparison against vehicle ([3]; 400 Hz) | AEP hearing threshold, significance of pairwise comparison against vehicle ([3]; 600 Hz) | AEP hearing threshold, significance of pairwise comparison against vehicle ([3]; 800 Hz) | AEP hearing threshold, significance of pairwise comparison against vehicle ([3]; 1000 Hz) | AEP hearing threshold, significance of pairwise comparison against vehicle ([3]; 1500 Hz) | AEP hearing threshold, significance of pairwise comparison against vehicle ([3]; 3000 Hz) | effect on hair cell density in four regions of the saccule compared to vehicle [4] | IC50 [5] [µM] | IC50 [6] [µM] | Relative rate (rate constant divided by the rate constant for [Pt(dien)Cl]^+) (5'-GMP) | Rate constant for the reaction of 5'-GMP with the platinum(II) complex (5'-GMP) | mean (± S.E.) temporary threshold shift (TTS), averaged across frequencies [3] | AEP hearing threshold, significance of pairwise comparison against cisplatin ([3]; 100 Hz) | AEP hearing threshold, significance of pairwise comparison against cisplatin ([3]; 250 Hz) | AEP hearing threshold, significance of pairwise comparison against cisplatin ([3]; 400 Hz) | AEP hearing threshold, significance of pairwise comparison against cisplatin ([3]; 600 Hz) | also measured
1 | N.N.[Cl][Pt][Cl] [Cisplatin, cisplatin] | 0.53 ± 0.94 | 9.79 ± 0.63 | ns (ns, p > 0.05) | ns (ns, p > 0.05) | **** (**** p ≤ 0.0001) | *** (*** p ≤ 0.001) | *** (*** p ≤ 0.001) | **** (**** p ≤ 0.0001) | **** (**** p ≤ 0.0001) | ns (ns, p > 0.05) | hair cell density reduction in the 5, 25 and 50% regions | 3.11 ± 0.06 | – | – | – | – | – | – | – | – | saccule hair cell density, % of control ([4]; 5% location along rostral-caudal axis): 69.5 % of control; saccule hair cell density, % of control ([4]; 25% location along rostral-caudal axis): 41.4 % of control; saccule hair cell density, % of control ([4]; 50% location along rostral-caudal axis): 47.7 % of control
2 | [NH3+][Pt-2]([NH3+])([Cl])[n+]1ccccc1 (stereo not shown) [Pyriplatin, pyriplatin] | 16.1 ± 1.13 | 89.28 ± 0.46 | * (* p ≤ 0.05) | ns (ns, p > 0.05) | ns (ns, p > 0.05) | ns (ns, p > 0.05) | ns (ns, p > 0.05) | ns (ns, p > 0.05) | ns (ns, p > 0.05) | ns (ns, p > 0.05) | no hair cell reduction | 66.3 ± 0.74 | 20.9 ± 0.69 | 0.073 | 2.9 (+/- 0.7) x 10^−2 M^-1s^-1 | 6 dB and 6.2 ± 2.1 dB | ns (ns, p > 0.05) | ns (ns, p > 0.05) | ns (ns, p > 0.05) | ns (ns, p > 0.05) | Rate constant for the reaction of 5'-GMP with the platinum(II) complex (5'-GMP; listed as pyriplatin): 2.9 ± 0.7 x 10^−2 M^-1s^-1; AEP hearing threshold, significance of pairwise comparison against cisplatin ([3]; 800 Hz): ns (ns, p > 0.05); AEP hearing threshold, significance of pairwise comparison against cisplatin ([3]; 1000 Hz): ns (ns, p > 0.05); AEP hearing threshold, significance of pairwise comparison against cisplatin ([3]; 1500 Hz): * (* p ≤ 0.05); AEP hearing threshold, significance of pairwise comparison against cisplatin ([3]; 3000 Hz): ns (ns, p > 0.05)
3 | CC[N+]1(CC)CC[NH+]2CC[NH2+][Pt-2]21[Cl] (stereo not shown) [[Pt(Et2dien)Cl]^+, Pt(N,N-diethyldiethylenetriamine)Cl] | – | – | *** (*** p ≤ 0.001) | ns (ns, p > 0.05) | **** (**** p ≤ 0.0001) | **** (**** p ≤ 0.0001) | **** (**** p ≤ 0.0001) | **** (**** p ≤ 0.0001) | ns (ns, p > 0.05) | ** (** p ≤ 0.01) | no significant reduction in hair cell bundles | – | – | 0.00012 | 4.64 ± 0.08 x 10^−5 M^-1s^-1 and 4.64 (+/- 0.08) x 10^−5 M^-1s^-1 | 11.1 ± 2.5 dB | ns (ns, p > 0.05) | ns (ns, p > 0.05) | ns (ns, p > 0.05) | ns (ns, p > 0.05) | AEP hearing threshold, significance of pairwise comparison against cisplatin ([3]; 800 Hz): * (* p ≤ 0.05); AEP hearing threshold, significance of pairwise comparison against cisplatin ([3]; 1000 Hz): ns (ns, p > 0.05); AEP hearing threshold, significance of pairwise comparison against cisplatin ([3]; 1500 Hz): ns (ns, p > 0.05); AEP hearing threshold, significance of pairwise comparison against cisplatin ([3]; 3000 Hz): ns (ns, p > 0.05)
4 | CC[N+]1(CC)CC[NH+]2CC[NH][Pt-2]21[Cl] (stereo not shown) [[Pt(Et2dien)Cl]^+, Pt(N,N-diethyldiethylenetriamine)Cl] | 7.13 ± 0.98 | 67.3 ± 0.36 | – | – | – | – | – | – | – | – | – | 48 ± 11.8 | 72.5 ± 3.37 | – | – | – | – | – | – | – | –
